Where two headings read alike, the source gives them in different places.
Experiments:
[1] = Mouse; cited from earlier work
[2] = Rabbit; cited from earlier work
[3] = Dog; cited from earlier work
mouse embryo fibroblasts = conditions: cited from earlier work
[4] = system: subcutaneous Hey (Human Ovarian Cancer) tumors; conditions: 100 mg/kg FUDR/Saline × 2 (1 & 14 days), i.p., 20 μL
Description: In this study, SCID mice bearing established (˜0.5 cm diameter) SC ovarian (Hey) tumors were used in this study and were randomized to equalize the tumor volume prior to initiation of drug therapy. Doses of 50 and 100 mg/kg were administered intratumorally. Floxuridine in saline at 100 mg/kg was administered by intraperitoneal injection. ATRIGEL® alone was administered in a volume equal to the 100 mg/kg group.
Mice were injected with 10×10^6 Hey (Human Ovarian Cancer) cells. When the average tumor diameter was approximately 0.5 cm, mice were divided into treatment groups such that the mean tumor volume in each group was equivalent and drug was administered. […] The volume of Floxuridine/polymer used was calculated assuming total release of drug from the polymer and a drug concentration of 0.10 mg/μL of polymer. […]
• All SCID mice used for this study were screened for IgG production and those mice producing IgG (“leaky”) were eliminated from the study group. • Mice were injected with 10×10^6 Hey cells. • When tumors achieved approximately 0.5 cm diameter, drug treatments were initiated. […] All treatments consisted of two injections (Days 1 and 14). • Mice were monitored weekly for weight, tumor size and toxicity symptoms (survival, general health, fur condition, etc.) for at least 5 weeks and the efficacy was compared

[5] = cited from earlier work
[6] = cited from earlier work; remark: listed apart in the source
[7] = Rat; cited from earlier work
[8] = mouse at 2.5 and 100 mg/kg (cleft palate, skeletal defects, limb deformities); cited from earlier work

## O=c1[nH]c(=O)n([C@H]2C[C@H](O)[C@@H](CO)O2)cc1F [FUDR, 5-fluorodeoxyuridine]
[1]
  Lethal Intravenous Doses: 880 +/− 51
[2]
  Lethal Intravenous Doses: 94 +/− 19.6
[3]
  Lethal Intravenous Doses: 157 +/− 46
Mouse embryo fibroblasts
  Mutagenicity: Mutagenic
[4]
  Mortality (%): 0%
[4]; listed as free Floxuridine
  Mortality (%): all surviving
[5]; female rats at 25 or 50 mg/kg
  Reproductive Toxicant, female: reproductive toxicity
[5]; rat at 75 and 150 mg/kg (cleft palate, skeletal defects, limb deformities)
  Teratogenicity: Teratogenic
[5]; rats at 125-250 mg/kg i.p.
  Reproductive Toxicant, male: spermato-toxic
[6]; 50 mg/kg/day × 5 days
  MTD, cumulative dose: 250 mg/kg
[6]; normal (immunocompetent) mice, intraperitoneal injection, × 5 days
  maximum tolerated dose (MTD): 50 mg/kg/day
[7]
  Lethal Intravenous Doses: 670 +/− 73
[8]
  Teratogenicity: Teratogenic

Reference: patent US20060121085A1, “Formulations for cell-schedule dependent anticancer agents” (priority 2003, published 2006)
